Experimental data taken from EP3515899B1, “SOLKETAL-ETHERS, PRODUCTION METHOD AND USES THEREOF” (Cepsa S.A.U., priority 2016, dated 2018).

Assay: Solubility of additives in diesel at 4°C (visual phase separation)
Assay type: physicochemical
Settings: for limit of addition to diesel by solubility: conclusion from Example 2
Method: Tests for solubility in diesel at 4°C were performed with the effluent of the etherification of solketal with isobutylene. Table 1: Composition of the additive STBE
Three additives were prepared each with a different STBE/SLK ratio (1/3, 1/1 and 3/1 w/w) from […] this effluent. In turn, these additives were added to the same diesel fuel in increasing proportions (2, 10, 20, 30 and 50 % wt.).
Table 5: Results for STBE solubility in diesel at 4°C

| SMILES | solubility in diesel at 4°C (60 % wt. additive in diesel) | solubility in diesel at 4°C (75 % wt. additive in diesel) | solubility in diesel at 4°C (80 % wt. additive in diesel) | limit of addition to diesel by solubility | solubility in diesel at 4°C (0.5 % wt. additive in diesel) | state of additive in diesel (Fig 1) (2% in diesel, photograph) |
| --- | --- | --- | --- | --- | --- | --- |
| CCC(C)(C)OCC1COC(C)(C)O1 (stereo not shown) [STAE-97, solketal-ter-amyl-ether] | S | S | S | not limited by its solubility with diesel |  |  |
| CC1(C)OCC(CO)O1 (stereo not shown) [SLK, 2,2-dimethyl-4-hydroxymethyl-1,3-dioxolane, reference compound] |  |  |  | ≤ 0.5 % by weight | S | phase separation |
